From article PMC7537607 (Computational Biology and Chemistry, 2020) come the findings set out here.

Values after ≈ are worked out from the molar mass of the structure shown. Values joined by “and” are separate entries in the source; they are usually repeats but may differ in a detail not shown here. Equal entries are not always repeated. Where two headings read alike, the source gives them in different places.

For one data set, the system named is Sindbis virus. As to the kind of experiment: microbe, parasite or virus in culture. It counts as cell-based. As to conditions: Vero, read-out: EC50 Sindbis virus.
For another data set, the system named is Reovirus-1. In words: organism not typed. It counts as cell-based. To be noted: for EC50: Vero, read-out: EC50 Reovirus-1.
In the next data set the test system is Yellow Fever virus. As to the kind of experiment: microbe, parasite or virus in culture. To be noted: for EC50: Yellow fever virus, Vero, read-out: EC50 Yellow Fever virus. The format is cell-based.
The next data set has as its system Coxsackie virus B4. In words: microbe, parasite or virus in culture. It counts as cell-based. To be noted: Enterovirus B, B4, Vero, read-out: EC50 Coxsackie virus B4.
Another data set has as its system Para-influenza-3 virus. In words: organism not typed. The format is cell-based. As to conditions: for EC50: Vero, read-out: EC50 Para-influenza-3 virus.
The test system of the next data set is Punta Toro virus. As to the kind of experiment: microbe, parasite or virus in culture. The format is cell-based. To be noted: Vero, read-out: EC50 Punta Toro virus.
A further data set can be described thus: in vitro. To be noted: human; for viability: 48 h.
A further data set relates to HIV-1 (strain NL4.3). In words: microbe, parasite or virus in culture. The format is cell-based.
Where [1] appears, read: Cytotoxicity % Viability Exp - 1, 10 μg/mL.
[2] abbreviates: Cytotoxicity % Viability Exp - 1, 100 μg/mL.

For `OCCn1c(Cl)nc2ccccc21` [Compound 1a, 2-(2-Chloro-1H-benzimidazol-1-yl)ethan-1-ol], the concentration for a half-maximal effect (EC50) with Sindbis virus, in the data set on Reovirus-1, with Yellow Fever virus, in the data set on Coxsackie virus B4, in the data set with Para-influenza-3 virus and in the data set with Punta Toro virus was more than 100 µg/mL throughout. Also, the “Minimum cytotoxic concentration (MCC)” value with Vero cells (African green monkey) is more than 100 µg/mL. Besides, the “SI (Yellow Fever Virus), ratio of MCC to EC50” value (from here on “SI (Yellow Fever Virus), ratio”) in the data set with Yellow Fever virus is 1. Besides, the figures for the viability in “in vitro” (setting [1]) and in “in vitro” (setting [2]) were 90.1% and 53.6%, respectively.

`OCCCn1c(Cl)nc2ccccc21` [Compound 1b, 3-(2-Chloro-1H-benzimidazol-1-yl)propan-1-ol]: the EC50 in the data set with Sindbis virus, in the data set with Reovirus-1, in the data set on Yellow Fever virus, in the data set with Coxsackie virus B4, with Para-influenza-3 virus and in the data set with Punta Toro virus was more than 100 µg/mL in each case. Moreover, the “Minimum cytotoxic concentration (MCC)” value in the data set with Vero cells (African green monkey) was more than 100 µg/mL. Also, the “SI (Yellow Fever Virus), ratio” value in the data set with Yellow Fever virus is given as 1. For the same compound, the viability was determined as 92.6% in the data set “in vitro” (setting [1]) and 58.6% in “in vitro” (setting [2]).

On to `O=[N+]([O-])c1ccc2c(c1)nc(Cl)n2CCO` [Compound 2a, 2-(2-Chloro-5-nitro-1H-benzimidazol-1-yl)ethan-1-ol], for which the EC50 with Sindbis virus, in the data set on Reovirus-1, in the data set with Yellow Fever virus, in the data set on Coxsackie virus B4, in the data set on Para-influenza-3 virus and with Punta Toro virus was more than 100 µg/mL in each case. In addition, the “Minimum cytotoxic concentration (MCC)” value in the data set with Vero cells (African green monkey) is not below 100 µg/mL. In the data set on Yellow Fever virus, the “SI (Yellow Fever Virus), ratio” value is given as 1. Besides, the viability is 104% in the data set “in vitro” (setting [1]) and 40.4% in the data set “in vitro” (setting [2]).

Turning to `O=[N+]([O-])c1ccc2c(c1)nc(Cl)n2CCCO` [Compound 2b, 3-(2-Chloro-5-nitro-1H-benzimidazol-1-yl)propan-1-ol], the EC50 with Sindbis virus, with Reovirus-1, in the data set on Coxsackie virus B4, with Para-influenza-3 virus and in the data set on Punta Toro virus was more than 100 µg/mL throughout. The figures for the viability in the data set “in vitro” (setting [1]) and in the data set “in vitro” (setting [2]) were 91.2% and 69.1%, respectively.

Consider `OCCn1c(Cl)nc2cc(Br)c(Br)cc21` [Compound 3a, 2-(5,6-Dibromo-2-chloro-1H-benzimidazol-1-yl)ethan-1-ol], for which the EC50 in the data set with Sindbis virus, in the data set on Reovirus-1, with Yellow Fever virus, in the data set with Coxsackie virus B4, in the data set with Para-influenza-3 virus and in the data set with Punta Toro virus was more than 100 µg/mL each time. In addition, the “Minimum cytotoxic concentration (MCC)” value in the data set on Vero cells (African green monkey) is 100 µg/mL. The “SI (Yellow Fever Virus), ratio” value with Yellow Fever virus is given as 1. The “SI (Selectivity index ratio CC50/IC50)” value with HIV-1 (strain NL4.3) is 2.73. The IC50 with HIV-1 (strain NL4.3) (Human immunodeficiency virus 1, TZM-bl, read-out: IC50 (HIV infection)) is 1.37 µg/mL (≈ 3.87 µM). The CC50 in the data set “in vitro” is 3.74 µg/mL and 10.5 µM. The viability amounted to 18.5% in the data set “in vitro” (setting [1]); 0.96% in the data set “in vitro” (setting [2]); 83.7% in “in vitro” (Cytotoxicity % Viability Exp - 2, 1 μg/mL); 49% in “in vitro” (Cytotoxicity % Viability Exp - 2, 5 μg/mL); 13.7% in “in vitro” (Cytotoxicity % Viability Exp - 2, 10 μg/mL).

Regarding `OCCCn1c(Cl)nc2cc(Br)c(Br)cc21` [Compound 3b, 3-(5,6-Dibromo-2-chloro-1H-benzimidazol-1-yl)propan-1-ol], the EC50 in the data set on Sindbis virus, in the data set on Reovirus-1, in the data set on Yellow Fever virus, in the data set on Coxsackie virus B4, with Para-influenza-3 virus and in the data set on Punta Toro virus was more than 100 µg/mL each time. In addition, in the data set on Vero cells (African green monkey), the “Minimum cytotoxic concentration (MCC)” value is more than 100 µg/mL. In addition, the “SI (Yellow Fever Virus), ratio” value in the data set on Yellow Fever virus is given as 1. In addition, the viability was 102% in the data set “in vitro” (setting [1]) and 79.8% in the data set “in vitro” (setting [2]).

As for `O=[N+]([O-])c1cc2nc(Cl)n(CCO)c2cc1[N+](=O)[O-]` [Compound 4a, 2-(2-Chloro-5,6-dinitro-1H-benzimidazol-1-yl)ethan-1-ol], the EC50 in the data set on Sindbis virus, in the data set with Reovirus-1, in the data set on Yellow Fever virus, with Coxsackie virus B4, in the data set with Para-influenza-3 virus and with Punta Toro virus was more than 100 µg/mL throughout. Also, the “Minimum cytotoxic concentration (MCC)” value in the data set with Vero cells (African green monkey) was more than 100 µg/mL. Besides, the “SI (Yellow Fever Virus), ratio” value in the data set with Yellow Fever virus is recorded as 1. Further, the viability in “in vitro” (setting [1]) was 99.9%; in “in vitro” (setting [2]), 11.2%.

As to `O=[N+]([O-])c1cc2nc(Cl)n(CCCO)c2cc1[N+](=O)[O-]` [Compound 4b, 3-(2-Chloro-5,6-dinitro-1H-benzimidazol-1-yl)propan-1-ol], the EC50 in the data set with Sindbis virus, with Reovirus-1, with Yellow Fever virus, in the data set on Coxsackie virus B4, in the data set on Para-influenza-3 virus and in the data set on Punta Toro virus was more than 100 µg/mL in each case. For the same compound, the “Minimum cytotoxic concentration (MCC)” value with Vero cells (African green monkey) was not below 100 µg/mL. For the same compound, in the data set with Yellow Fever virus, the “SI (Yellow Fever Virus), ratio” value stood at 1. In addition, the viability in the data set “in vitro” (setting [1]) was determined as 92.1%; in “in vitro” (setting [2]), 90.9%.

Regarding `COc1c(C)c2c(c(O)c1C/C=C(\C)CCC(=O)O)C(=O)OC2` [Mycophenolic acid, reference compound], the EC50 in the data set on Sindbis virus was 8.9 µM; in the data set on Reovirus-1 it was 6 µM; with Yellow Fever virus it was 0.8 µM; in the data set on Coxsackie virus B4, more than 100 µM; with Para-influenza-3 virus, 0.6 µM; in the data set with Punta Toro virus, 14 µM. Further, in the data set on Yellow Fever virus, the “SI (Yellow Fever Virus), ratio” value stood at 125.

As to `Cc1ccnc2c1NC(=O)c1cccnc1N2C1CC1` [Nevirapine, reference compound], the “SI (Selectivity index ratio CC50/IC50)” value with HIV-1 (strain NL4.3) is more than 200.

With `NC(=O)c1ncn([C@@H]2O[C@H](CO)[C@@H](O)[C@H]2O)n1` [Ribavirin, reference compound], the EC50 in the data set with Sindbis virus was more than 250 µM; in the data set on Reovirus-1, more than 250 µM; in the data set on Yellow Fever virus it was more than 250 µM; in the data set on Coxsackie virus B4, more than 250 µM; with Para-influenza-3 virus it was 250 µM; in the data set on Punta Toro virus, more than 250 µM. Besides, in the data set with Yellow Fever virus, the “SI (Yellow Fever Virus), ratio” value is listed as 1.

Regarding “dextran sulfate [DS - 10.000, reference compound]”, the “EC50 Reovirus-1” value in the data set on Reovirus-1 is more than 100 µg/mL. Besides, in the data set with Vero cells, the “Minimum cytotoxic concentration (MCC)” value is given as >100 (0.01μM) μg/mL and the “Minimum cytotoxic concentration (MCC), molar value in parentheses” value is given as >100 (0.01μM). Also, the “SI (Yellow Fever Virus), ratio” value with Yellow Fever virus is 125. Moreover, the “EC50 Para-influenza-3 virus” value in the data set on Para-influenza-3 virus was more than 100 µg/mL.
